Eleven molecules from PubChem BioAssay (NCI) can be followed below.

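Method: 48-hour compound exposure of cells in 96-well plates, five concentrations, linear interpolation of endpoints. At the GI50, growth is halved. TGI marks complete inhibition of growth.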 Some results are limits rather than exact numbers.

Some test systems named below: T-47D breast; NCI-H23 lung; SK-MEL-28 melanoma; HCT-116 colon; HOP-92 NSCLC; CAKI-1 renal; EKVX NSCLC; TK-10 renal; HT29 colon; SK-OV-3 ovarian.
Holding throughout (assay): growth of human tumour cells (NCI), 48 h

Consider `O=[N+]([O-])c1ccc2c(c1)n1c(N3CCCC3)[n+]3ccccc3c1c1c3cccc[n+]3c(N3CCCC3)n21`, for which the TGI in the assay with T-47D breast, in the assay on NCI-H23 lung, with SK-MEL-28 melanoma, in the assay with HCT-116 colon, in the assay on HOP-92 NSCLC and in the assay with CAKI-1 renal was more than 100 µM in each case. Also, the TGI in the assay with EKVX NSCLC and in the assay on TK-10 renal was more than 100 µM in each case.
Consider `NC(=S)NNC(=S)NC(=O)c1ccco1`, for which the TGI in the assay with HT29 colon, in the assay on T-47D breast, in the assay on SK-OV-3 ovarian, in the assay with NCI-H23 lung, in the assay on SK-MEL-28 melanoma and in the assay with HCT-116 colon was more than 10 µM each time. Moreover, the TGI in the assay with HOP-92 NSCLC, with CAKI-1 renal and in the assay on EKVX NSCLC was more than 10 µM in each case.
As to `O=NN1CCCS1(=O)=O`, the TGI in the assay on HT29 colon, in the assay on T-47D breast, in the assay on SK-OV-3 ovarian, in the assay on NCI-H23 lung, with SK-MEL-28 melanoma and in the assay on HCT-116 colon was more than 100 µM each time. In addition, the TGI in the assay with CAKI-1 renal, in the assay with EKVX NSCLC and with TK-10 renal was more than 100 µM each time.
On to `CCn1c(=O)c2c3ccc(OC(C)=O)cc3[nH]c2c2ccc(OC(C)=O)cc21`, for which the TGI was more than 100 µM in the assay with HT29 colon; 93.9 µM with T-47D breast; more than 100 µM in the assay with SK-OV-3 ovarian; more than 100 µM in the assay on NCI-H23 lung; more than 100 µM in the assay on SK-MEL-28 melanoma; 30.1 µM in the assay with HCT-116 colon. Also, the TGI in the assay on HOP-92 NSCLC, with CAKI-1 renal and in the assay on TK-10 renal was more than 100 µM in each case.
As for `C=CCc1ccccc1C1CC2(C(=O)OC)OC1C(C(=O)OC)=C2C(=O)OC` (stereo not given), the TGI with HT29 colon, with T-47D breast, in the assay with SK-OV-3 ovarian, in the assay with NCI-H23 lung, with SK-MEL-28 melanoma and in the assay on HCT-116 colon was more than 10 µM each time. In addition, the TGI in the assay on CAKI-1 renal, in the assay with EKVX NSCLC and in the assay on TK-10 renal was more than 10 µM each time.
For `COc1cc(S(=O)(=O)Nc2ccc(-c3csc(/N=C\c4ccccc4)n3)cc2)ccc1Cl`, the TGI in the assay with HT29 colon, with T-47D breast, in the assay with SK-OV-3 ovarian, in the assay with NCI-H23 lung, in the assay on SK-MEL-28 melanoma and in the assay on HCT-116 colon was more than 100 µM in each case. Also, the TGI in the assay on HOP-92 NSCLC, in the assay with CAKI-1 renal and with EKVX NSCLC was more than 100 µM each time.
In the case of `CC1(C)[C@@H](OC(N)=O)C=C[C@]2(CO)[C@H]3CC[C@]4(C)[C@@H](c5ccc(=O)oc5)[C@@H](Cl)C[C@]4(O)C3=CC[C@@H]12`, the GI50 was 0.0024 µM in the assay with HT29 colon; 0.00359 µM in the assay on T-47D breast; 0.00474 µM in the assay with SK-OV-3 ovarian; less than 0.0001 µM in the assay with NCI-H23 lung; 0.0116 µM in the assay on SK-MEL-28 melanoma; less than 0.0001 µM in the assay with HCT-116 colon. In addition, the results for the GI50 in the assay on HOP-92 NSCLC and with EKVX NSCLC were 0.00862 µM and less than 0.0001 µM, respectively. The TGI in the assay with HT29 colon came out at 0.0154 µM; with T-47D breast, 0.0326 µM; in the assay with SK-OV-3 ovarian, 0.0306 µM; in the assay with NCI-H23 lung, 0.0113 µM; in the assay with SK-MEL-28 melanoma, 0.0303 µM; in the assay with HCT-116 colon, 0.0104 µM. Further, the TGI came to 0.0513 µM in the assay on HOP-92 NSCLC and 0.00806 µM in the assay on EKVX NSCLC.
Regarding `Cn1ccc2c(c1=O)C(=O)OC2(C)C`, the TGI in the assay with HT29 colon, in the assay on T-47D breast, in the assay on SK-OV-3 ovarian, with NCI-H23 lung, in the assay with SK-MEL-28 melanoma and in the assay on HCT-116 colon was more than 100 µM in each case. For the same molecule, the TGI in the assay with CAKI-1 renal, with EKVX NSCLC and in the assay with TK-10 renal was more than 100 µM each time.
In the case of `C=CCOC1(CC=C)C(=O)OC2C(O)COC21O` (stereo not given), the TGI in the assay on HT29 colon, in the assay with T-47D breast, with SK-OV-3 ovarian, with NCI-H23 lung, in the assay with SK-MEL-28 melanoma and in the assay on HCT-116 colon was more than 100 µM each time. Besides, the TGI in the assay with CAKI-1 renal, in the assay on EKVX NSCLC and with TK-10 renal was more than 100 µM in each case.
As to `COc1ccc2c(c1)C(=O)C1CCC(=O)N1C2c1ccc2c(c1)OCO2` (stereo not given), the TGI with HT29 colon was 16.9 µM; in the assay on T-47D breast it was 48.5 µM; in the assay on SK-OV-3 ovarian, 63.1 µM; with NCI-H23 lung, 39.8 µM; with SK-MEL-28 melanoma it was 24.4 µM; in the assay on HCT-116 colon, 14.9 µM. Besides, the figures for the TGI with CAKI-1 renal, in the assay with EKVX NSCLC and with TK-10 renal were 71.8 µM, 40.2 µM and 86.1 µM, respectively.
For the molecule `N#C/C(C(=O)Nc1ccccc1)=C(/N)N1CCCCC1`, the TGI in the assay with HT29 colon, in the assay with T-47D breast, in the assay with SK-OV-3 ovarian, in the assay with NCI-H23 lung, in the assay with SK-MEL-28 melanoma and in the assay with HCT-116 colon was more than 100 µM in each case. Besides, the TGI with HOP-92 NSCLC, with CAKI-1 renal and with EKVX NSCLC was more than 100 µM each time.
